From the supplement of paper PMC5908809

Tests used:
SNK-6 (IL-2 2.5 ng/mL) [1] = experiment: drug sensitivity score (DSS) (DSS units); higher = more sensitive; extreme values may be limits of the assay; details: 72 h
KAI3 (IL-2 2.5 ng/mL) [2] = experiment: as above; details: 72 h
[3] = system: normal primary NK cells, pool 3 (3 donors) (IL-2 2.5 ng/mL); experiment: as above; details: 72 h
NK-YS (IL-2 2.5 ng/mL) [4] = experiment: as above; details: 72 h
[5] = system: normal primary NK cells, pool 2 (3 donors) (IL-2 2.5 ng/mL); experiment: as above; details: 72 h
KHYG-1 (IL-2 2.5 ng/mL) [6] = experiment: as above; details: 72 h
DERL-7 (IL-2 2.5 ng/mL) [7] = experiment: as above; details: 72 h
NK-92 (IL-2 2.5 ng/mL) [8] = experiment: as above; details: 72 h
[9] = system: normal primary NK cells, pool 1 (3 donors) (IL-2 2.5 ng/mL); experiment: as above; details: 72 h
[10] = system: normal primary NK cells, pool 1 (3 donors), resting (IL-2 0 ng/mL); experiment: as above; details: 72 h
IMC-1 (IL-2 20 ng/mL) [11] = experiment: as above; details: 72 h
YT (IL-2 2.5 ng/mL) [12] = experiment: as above; details: 72 h
NKL (IL-2 2.5 ng/mL) [13] = experiment: as above; details: 72 h
SNK-6 (IL-2 2.5 ng/mL) [14] = experiment: percent inhibition of viability; higher = more inhibition; details: 72 h
KAI3 (IL-2 2.5 ng/mL) [15] = experiment: as above; details: 72 h
[16] = system: normal primary NK cells, pool 3 (3 donors) (IL-2 2.5 ng/mL); experiment: as above; details: 72 h
NK-YS (IL-2 2.5 ng/mL) [17] = experiment: as above; details: 72 h
[18] = system: normal primary NK cells, pool 2 (3 donors) (IL-2 2.5 ng/mL); experiment: as above; details: 72 h
KHYG-1 (IL-2 2.5 ng/mL) [19] = experiment: as above; details: 72 h
DERL-7 (IL-2 2.5 ng/mL) [20] = experiment: as above; details: 72 h
NK-92 (IL-2 2.5 ng/mL) [21] = experiment: as above; details: 72 h
[22] = system: normal primary NK cells, pool 1 (3 donors) (IL-2 2.5 ng/mL); experiment: as above; details: 72 h
[23] = system: normal primary NK cells, pool 1 (3 donors), resting (IL-2 0 ng/mL); experiment: as above; details: 72 h
IMC-1 (IL-2 20 ng/mL) [24] = experiment: as above; details: 72 h
YT (IL-2 2.5 ng/mL) [25] = experiment: as above; details: 72 h
NKL (IL-2 2.5 ng/mL) [26] = experiment: as above; details: 72 h
[27] = system: normal NK cells expanded with K562-aAPC; experiment: drug sensitivity score (DSS) (DSS units); higher = more sensitive; extreme values may be limits of the assay; details: 72 h; IL-2 2.5 ng/mL
Protocol: (§1)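 Drug sensitivity and resistance testing on K562-aAPC-expanded normal NK cells: 5 concentrations (10-fold steps over a 10,000-fold range), 72 h at 37 °C, viability by CellTiter-Glo normalised to DMSO and benzethonium chloride controls; DSS from the fitted curve.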

[28] = system: normal NK cells expanded with K562-aAPC; experiment: percent inhibition of viability; higher = more inhibition; details: 72 h, IL-2 2.5 ng/mL
Protocol: as §1

Cc1cc(Nc2ncc(Cl)c(Nc3ccccc3S(=O)(=O)C(C)C)n2)c(OC(C)C)cc1C1CCNCC1 [Ceritinib] (max concentration tested 2500 nM)
Details	drug sensitivity score
DERL-7 (IL-2 2.5 ng/mL) [7]	0.92
IMC-1 (IL-2 20 ng/mL) [11]	0.89
KAI3 (IL-2 2.5 ng/mL) [2]	0
KHYG-1 (IL-2 2.5 ng/mL) [6]	0
NK-92 (IL-2 2.5 ng/mL) [8]	0
NK-YS (IL-2 2.5 ng/mL) [4]	0.89
NKL (IL-2 2.5 ng/mL) [13]	0.89
SNK-6 (IL-2 2.5 ng/mL) [1]	0
YT (IL-2 2.5 ng/mL) [12]	0
[3]	0
[5]	0.23
[9]	3.33
[10]	5.8
[27]	0.89

percent inhibition of viability [%]
Details	0.25 nM	2.5 nM	25 nM	250 nM	2500 nM
DERL-7 (IL-2 2.5 ng/mL) [20]	3.63	5.92	-4.52	1.56	21.8
IMC-1 (IL-2 20 ng/mL) [24]	-2.25	-2.84	-3.12	-7.73	-4.42
KAI3 (IL-2 2.5 ng/mL) [15]	0.47	4.56	-2.83	3.89	7.4
KHYG-1 (IL-2 2.5 ng/mL) [19]	0.86	-4.67	-2.14	-5.38	-4.91
NK-92 (IL-2 2.5 ng/mL) [21]	7.74	-3.66	-9.06	-14.7	-17.8
NK-YS (IL-2 2.5 ng/mL) [17]	-0.73	-3.11	-3.16	-7.84	-1.32
NKL (IL-2 2.5 ng/mL) [26]	-3.75	-12.6	-15.7	-9.51	-1.79
SNK-6 (IL-2 2.5 ng/mL) [14]	10.1	11.8	6.18	-2.76	-12.8
YT (IL-2 2.5 ng/mL) [25]	2.57	-0.77	-0.72	-2.37	3.15
[16]	-5.64	-4.98	-6.68	-5.81	0.68
[18]	-8.08	-2.52	-12.5	-0.57	15.4
[22]	-2.74	-3.9	0.34	4.28	50.2
[23]	-7.32	-13.8	7.94	12	69
[28]	-2.81	-5.61	-7.59	-0.13	-2.11

CC(C)N(CCCNC(=O)Nc1ccc(C(C)(C)C)cc1)C[C@H]1O[C@@H](n2cc(Br)c3c(N)ncnc32)[C@H](O)[C@@H]1O [SGC0946] (max concentration tested 10000 nM)
Details	drug sensitivity score
DERL-7 (IL-2 2.5 ng/mL) [7]	1.92
IMC-1 (IL-2 20 ng/mL) [11]	0.74
KAI3 (IL-2 2.5 ng/mL) [2]	4.84
KHYG-1 (IL-2 2.5 ng/mL) [6]	0.48
NK-92 (IL-2 2.5 ng/mL) [8]	3.88
NK-YS (IL-2 2.5 ng/mL) [4]	0.7
NKL (IL-2 2.5 ng/mL) [13]	1.63
SNK-6 (IL-2 2.5 ng/mL) [1]	4.92
YT (IL-2 2.5 ng/mL) [12]	1.23
[3]	1.29
[5]	0.89
[9]	0.32
[10]	2.93
[27]	0.11

percent inhibition of viability [%]
Details	1 nM	10 nM	100 nM	1000 nM	10000 nM
DERL-7 (IL-2 2.5 ng/mL) [20]	4.94	2.4	5.77	1.04	37
IMC-1 (IL-2 20 ng/mL) [24]	-8.07	-3.94	-2.69	2.99	17.2
KAI3 (IL-2 2.5 ng/mL) [15]	2.28	-1.4	-1.58	5.53	72.2
KHYG-1 (IL-2 2.5 ng/mL) [19]	-5.1	-1.55	-1.47	1.03	17
NK-92 (IL-2 2.5 ng/mL) [21]	-2.74	-1.7	19.9	10.5	40.7
NK-YS (IL-2 2.5 ng/mL) [17]	-4.5	-0.39	3.77	-0.01	21.5
NKL (IL-2 2.5 ng/mL) [26]	-15	-7.75	4.16	0.58	33.7
SNK-6 (IL-2 2.5 ng/mL) [14]	-6.32	-2.25	0.17	25.4	38.7
YT (IL-2 2.5 ng/mL) [25]	-3.26	-3.19	0.56	0.95	27.2
[16]	-5.94	-2.43	8.64	3.42	22.6
[18]	-1.67	-6.15	8.39	-1.8	25.8
[22]	8.37	-3.22	1.91	-6.49	19
[23]	15.8	-4.32	5.19	-6.57	62.3
[28]	-2.37	-3.94	1.95	8.9	10.9

O=NN(CCCl)C(=O)NC1CCCCC1 [Lomustine] (max concentration tested 10000 nM)
Details	drug sensitivity score
DERL-7 (IL-2 2.5 ng/mL) [7]	0
IMC-1 (IL-2 20 ng/mL) [11]	0
KAI3 (IL-2 2.5 ng/mL) [2]	0
KHYG-1 (IL-2 2.5 ng/mL) [6]	0
NK-92 (IL-2 2.5 ng/mL) [8]	0
NK-YS (IL-2 2.5 ng/mL) [4]	0
NKL (IL-2 2.5 ng/mL) [13]	0
SNK-6 (IL-2 2.5 ng/mL) [1]	0
YT (IL-2 2.5 ng/mL) [12]	0
[3]	0
[5]	0
[9]	0
[10]	0
[27]	0

percent inhibition of viability [%]
Details	1 nM	10 nM	100 nM	1000 nM	10000 nM
DERL-7 (IL-2 2.5 ng/mL) [20]	-0.56	-0.17	-2.85	-3.2	-5.37
IMC-1 (IL-2 20 ng/mL) [24]	-5.94	-3.37	-4.39	-5.66	-4.09
KAI3 (IL-2 2.5 ng/mL) [15]	-9.82	0.25	-6.64	-4.27	-3.54
KHYG-1 (IL-2 2.5 ng/mL) [19]	-7.65	-1.52	-3.58	-1.68	0.4
NK-92 (IL-2 2.5 ng/mL) [21]	-9.96	-19	-9.06	-13.7	-15.8
NK-YS (IL-2 2.5 ng/mL) [17]	-6.33	-2.26	-1.76	0.49	4.09
NKL (IL-2 2.5 ng/mL) [26]	-15	-16.4	-19.5	-23.3	-24.5
SNK-6 (IL-2 2.5 ng/mL) [14]	10.8	20.4	-2.23	6.58	-11
YT (IL-2 2.5 ng/mL) [25]	-3.7	-2.05	-4.42	-2.81	0.06
[16]	-11.8	-8.98	-8.45	-6.32	-4.26
[18]	-12.4	-5.7	-9.1	-11.4	-2.45
[22]	-1.98	-5.39	-3.98	-5.42	-0.06
[23]	-9.1	-11.4	-22.4	13.4	3.51
[28]	-0.77	-4.05	-3.71	-4.93	-6.08
